Measurements published in publication PMC7746945 (Neuro-Oncology, 2020).
Entries after “also recorded” stand apart in the source; their conditions may differ. Read-outs that look alike come from different tables or passages of the source.

Columns and labels:
MDR1 [1] = molecular target: T1, MDR1 (Homo sapiens, UniProt P08183); assay: Directional transport of [14C]-olaparib across MDCKII-MDR1 monolayers, with or without ketoconazole; assay type: in vitro ADME
T1 construct: host or cells: MDCKII (Madin-Darby canine kidney type II) cells stably expressing human MDR1 cDNA
T1 sequence (P08183 whole entry): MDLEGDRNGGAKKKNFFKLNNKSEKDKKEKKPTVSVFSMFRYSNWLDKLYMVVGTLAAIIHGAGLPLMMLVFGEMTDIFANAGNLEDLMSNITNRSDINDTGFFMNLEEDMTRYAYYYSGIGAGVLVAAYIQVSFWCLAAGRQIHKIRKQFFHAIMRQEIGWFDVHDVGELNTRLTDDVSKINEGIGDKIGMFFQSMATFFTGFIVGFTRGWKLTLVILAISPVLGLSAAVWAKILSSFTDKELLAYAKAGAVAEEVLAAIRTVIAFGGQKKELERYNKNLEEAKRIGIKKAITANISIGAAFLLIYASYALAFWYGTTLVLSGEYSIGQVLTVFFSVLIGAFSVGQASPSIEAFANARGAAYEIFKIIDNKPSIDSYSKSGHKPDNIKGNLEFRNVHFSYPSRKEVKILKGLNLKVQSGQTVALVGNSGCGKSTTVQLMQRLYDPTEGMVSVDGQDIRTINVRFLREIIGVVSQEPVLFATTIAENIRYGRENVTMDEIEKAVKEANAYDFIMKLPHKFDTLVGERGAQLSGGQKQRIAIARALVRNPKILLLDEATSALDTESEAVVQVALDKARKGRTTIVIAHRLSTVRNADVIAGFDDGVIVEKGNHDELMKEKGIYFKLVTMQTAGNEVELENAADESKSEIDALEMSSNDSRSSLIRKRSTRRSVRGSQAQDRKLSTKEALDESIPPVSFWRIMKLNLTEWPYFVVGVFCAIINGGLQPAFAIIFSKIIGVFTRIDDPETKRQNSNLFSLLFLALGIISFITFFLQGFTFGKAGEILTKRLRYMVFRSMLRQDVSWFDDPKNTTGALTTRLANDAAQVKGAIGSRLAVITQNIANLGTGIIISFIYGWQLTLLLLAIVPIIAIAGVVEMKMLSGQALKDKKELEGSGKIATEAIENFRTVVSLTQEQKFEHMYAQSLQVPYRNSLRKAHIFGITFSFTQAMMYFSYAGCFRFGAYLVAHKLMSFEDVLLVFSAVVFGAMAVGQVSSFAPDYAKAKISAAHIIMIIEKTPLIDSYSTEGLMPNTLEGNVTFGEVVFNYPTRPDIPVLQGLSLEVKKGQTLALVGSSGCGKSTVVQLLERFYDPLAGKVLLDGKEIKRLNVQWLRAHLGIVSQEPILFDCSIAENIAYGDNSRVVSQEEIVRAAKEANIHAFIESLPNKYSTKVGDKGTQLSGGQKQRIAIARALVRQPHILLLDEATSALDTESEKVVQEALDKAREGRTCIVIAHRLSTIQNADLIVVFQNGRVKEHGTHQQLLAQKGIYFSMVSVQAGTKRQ

E2 cells = assay: Clonogenic survival radiosensitization assay; assay type: cell-based, human; settings: E2, MGMT methylated, 1–5 Gy
Experimental: (§1) Canine kidney epithelial cells, stably expressing human MDR1 cDNA (Madin-Darby canine kidney type II [MDCKII]–MDR1 cells) or empty vector (MDCKII control), were used to model the intact BBB and determine permeability coefficients of (^14C)-olaparib in the presence of ketoconazole (25 μM). Whole body autoradiography was performed on male pigmented rats after single oral administration of [^14C]-olaparib (15 mg/kg; 5 MBq/kg). For autoradiography studies, animal care and experiments were carried out in accordance with AstraZeneca guidelines, which comply with UK standards. […] Xenograft experiments were performed under the relevant UK Home Office Project Licence and carried out with ethical approval from the University of Glasgow under the Animal (Scientific Procedures) Act 1986 and the EU directive 2010. Mice were maintained in individually ventilated cages with environmental enrichment and following the guidelines of ARRIVE (Animal Research: Reporting of In Vivo Experiments). […] Ratiometric t-test analysis determined SER confidence intervals and P-values. Further details are available in the Supplementary Material.
(§2) Visible colonies containing at least 50 cells were counted 14–21 days after treatment and surviving fraction calculated. The linear quadratic model was fitted using maximum likelihood estimation and integrated to determine the mean inactivation dose (MID) for each experimental condition.

G7 cells = assay: Clonogenic survival radiosensitization assay; assay type: cell-based, human; settings: G7, MGMT methylated, 1–5 Gy
Experimental: as §1, §2

R10 cells = assay: Clonogenic survival radiosensitization assay; assay type: cell-based, human; settings: R10, MGMT methylated, 1–5 Gy
Experimental: as §1, §2

G1 cells = assay: Clonogenic survival radiosensitization assay; assay type: cell-based, human; settings: G1, MGMT methylated, olaparib 100 nM, 1–5 Gy
Experimental: as §1, §2

UVW cells = assay: Clonogenic survival radiosensitization assay; assay type: cell-based, human; settings: MGMT methylated, 1–5 Gy
Experimental: as §1, §2

T98G cells = assay: Clonogenic survival radiosensitization assay; assay type: cell-based, human; settings: MGMT unmethylated, 1–5 Gy
Experimental: as §1, §2

[2] = Clinical PK: olaparib in tumor core, tumor margin and plasma of recurrent GBM patients (LC-MS); assay type: in vivo, human; settings: for Kp: human, tumor and plasma, oral, ratio between tumor and plasma olaparib concentrations, surgical patients
Experimental: At neurosurgery, contrast-enhancing tumor regions identified on preoperative MRI scans were targeted for resection. Specimens were assessed by intraoperative cytology; 3 regions of viable, solid tumor from each patient were snap frozen for PK analysis by liquid chromatography mass spectrometry (LC-MS). In the expansion cohort, 5-ALA guided neurosurgery enabled discrimination of fluorescent “core” tissue from nonfluorescent “margin” tissue. Up to 3 tumor margin biopsies were taken from each patient, from each of which half was frozen for PK analysis and half fixed for histology.
100 mg q.d., n = 10; 150 mg q.d., n = 35; 200 mg b.i.d., n = 3. […] All measurements performed by LC-MS.

MDR1 [3] = molecular target: T1, MDR1; assay: Directional transport of [14C]-olaparib across MDCKII-MDR1 monolayers, with or without ketoconazole; assay type: in vitro ADME; remark: listed apart in the source
Experimental: as §1
Apparent permeability coefficients were calculated for apical to basolateral (Papp a‒b) and basolateral to apical transport (Papp b‒a) as described in Methods. […] (B) Single oral doses of 15 mg/kg [14C]-olaparib were administered to male pigmented rats that were subsequently culled, sectioned, and subjected to whole body autoradiography at the timepoints shown. Radioactivity was excluded from the central nervous system in all animals at all timepoints. […] Blood, tumor, and contralateral (non tumor bearing) brain were harvested and snap frozen at the time points shown. […] Note different y-axis scales.
Monolayers were cultured in Dulbeco’s Modified Eagle Medium (DMEM) supplemented with glucose (4.5 g/L), 10% fetal calf serum, penicillin and streptomycin on semi-permeable filter inserts (Transwell plates 3401, Costar, Cambridge, MA) for three days. Under these conditions MDR1 localises to the apical plasma membrane. Monolayer integrity was assessed by transepithelial electrical resistance (TEER) measurement then inserts washed with Hank’s Balanced Salt Solution (HBSS) and transferred to 12-well plates containing HBSS (to measure apical to basal transport, a – b) or [14C]-olaparib diluted in HBSS (dose solution, to measure basal to apical transport, b – a). After addition of dose solution (a – b) or HBSS (b – a) to the apical chamber, samples of apical and basolateral compartments were collected immediately after dosing and after 120 minutes incubation. Three concentrations of 14C-olaparib were tested (0.1, 1 and 10 µM), each in three replicates. Radioactivity was determined by liquid scintillation counting. […] Transport of olaparib or reference substrate cimetidine was determined in MDCKII-BCRP cells. Apparent permeability coefficients (Papp) were calculated:
Efflux ratio = Papp b - a /a - b = Papp b - a / Papp a - b (mean)
MDCKII corrected efflux ratio =
Papp b - a /a - b ratio in transfected MDCKII cells
Papp b - a /a - b ratio in MDCKII control cells (mean)

[4] = of 16 RP2D patients, olaparib with TMZ
[5] = 200 mg b.i.d. for 7 doses before resection, 9 samples from 3 patients
[6] = 21 tumor margin samples, 9 dose expansion patients
[7] = MDCK-MDR1, with ketoconazole 25 µM, read-out: Papp b-a + ketoconazole (SD)

O=C(c1cc(Cc2n[nH]c(=O)c3ccccc23)ccc1F)N1CCN(C(=O)C2CC2)CC1 [olaparib, 4-[3-(4-cyclopropanecarbonylpiperazine-1-carbonyl)-4-fluorobenzyl]-2H-phthalazin-1-one]
Papp A→B at 120 min, 3 µM (MDR1 [1]; human, MDCK-MDR1): 0.53 ×10⁻⁶ cm/s
Papp B→A at 120 min, 3 µM (MDR1 [1]; human, MDCK-MDR1, with ketoconazole 25 µM, read-out: Papp b-a + ketoconazole (SD)): 16.3 ×10⁻⁶ cm/s
Papp B→A at 120 min, 3 µM (MDR1 [1]; human, MDCK-MDR1, read-out: Papp b-a (SD)): 42.7 ×10⁻⁶ cm/s
MDR1 substrate status (MDR1 [1]; olaparib 1–10 µM): substrate for multidrug resistance protein 1; also recorded: substrate for MDR1
reduction of apparent permeability of MDCKII-MDR1 cells to olaparib by ketoconazole (MDR1 [1]; olaparib 1–10 µM, ketoconazole 25 µM): 40–62%
SER (95% CI) 100nM (E2 cells; olaparib 100 nM): 1.237 (1.065 - 1.441)
SER (95% CI) 500nM (E2 cells; olaparib 500 nM): 1.221 (1.076 - 1.378)
SER (95% CI) 100nM (G7 cells; olaparib 100 nM): 1.105 (1.018 - 1.200)
SER (95% CI) 500nM (G7 cells; olaparib 500 nM): 1.188 (1.029 - 1.390)
SER (95% CI) 100nM (R10 cells; olaparib 100 nM): 1.266 (0.991 - 1.565)
SER (95% CI) 500nM (R10 cells; olaparib 500 nM): 1.281 (0.966 - 1.721)
SER (95% CI) 100nM (G1 cells): 1.225 (1.01 - 1.513)
SER (95% CI) 100nM (UVW cells; olaparib 100 nM): 1.478 (1.28 - 1.726)
SER (95% CI) 500nM (UVW cells; olaparib 500 nM): 1.695 (1.407 - 2.098)
SER (95% CI) 100nM (T98G cells; olaparib 100 nM): 1.42 (1.128 - 1.883)
SER (95% CI) 500nM (T98G cells; olaparib 500 nM): 1.584 (1.464 - 1.71)
patients needing dose reductions for neutropenia (grade 3) and thrombocytopenia (grade 2) (cohort 1, olaparib with TMZ): 2
DLT (cohort 3, olaparib with TMZ, one DLT): grade 3 vomiting
toxicity and tolerability of schedule (cohort 4, olaparib with TMZ, one patient): toxic death associated with pancytopenia, septic shock, and renal failure
grade 2 nausea, patients [4]: 1
grade 2 pruritus, patients [4]: 1
grade 2 vomiting, patients [4]: 1
grade 3–4 anemia, patients [4]: 3
grade 3–4 lymphopenia, patients [4]: 7
grade 3–4 neutropenia, patients [4]: 2
grade 3–4 thrombocytopenia, patients [4]: 4
patients with grade 3–4 hematological toxicities [4]: 7
effect on TMZ-related hematological toxicity (olaparib with TMZ): exacerbated
MTD / RP2D, olaparib dose (once daily, days 1–3 per week, with TMZ 75 mg/m^2 daily for 42 days): 150 mg
mean olaparib concentration in stage 1 tumor samples [2, 5]: 471 nM
olaparib concentration in stage 1 tumor samples, range [2, 5]: 164 to 992 nM
tumor margin specimens with olaparib detected ([2]; 9 patients): 21/21
tumor margin olaparib concentration, median [2, 6]: 512.3 nM
tumor margin olaparib concentration, range [2, 6]: 97 to 1237 nM
tumor core specimens with olaparib detected ([2]; 27 patients): 71/71
tumor core olaparib concentration, range ([2]; 71 tumor core samples, 27 surgical patients): 97 to 1374 nM
tumor core olaparib concentration, median ([2]; 71 tumor core samples, 27 surgical patients, 3–5 hours after final preoperative dose): 496 nM
Kp ([2]; mean): 0.25
Kp ([2]; range): 0.01 to 0.9
tumor olaparib concentrations, range in all specimens ([2]; tumor core and margin): 100 to 1000 nM
Papp A→B at 120 min, 1 µM (MDR1 [3]; MDCK-MDR1): 0.28 ×10⁻⁶ cm/s
Papp A→B at 120 min, 10 µM (MDR1 [3]; MDCK-MDR1): 0.58 ×10⁻⁶ cm/s
Papp B→A at 120 min, 1 µM (MDR1 [3]; MDCK-MDR1): 40.6 ×10⁻⁶ cm/s
Papp B→A at 120 min, 10 µM (MDR1 [3]; MDCK-MDR1, read-out: Papp b-a (SD)): 39.4 ×10⁻⁶ cm/s
Papp B→A at 120 min, 1 µM (MDR1 [3]; [7]): 24.1 ×10⁻⁶ cm/s
Papp B→A at 120 min, 10 µM (MDR1 [3]; [7]): 17.1 ×10⁻⁶ cm/s
